Consider seven compounds from article PMC7801115, “Preclinical in vitro screening of newly synthesised amidino substituted benzimidazoles and benzothiazoles” (Journal of Enzyme Inhibition and Medicinal Chemistry, 2021).

In series [1] the test system is A549. Briefly: MTS cell viability (cytotoxicity) assay, 2D cell culture. It is filed as cell-based. The note with it: Homo sapiens, A549, 2D cell culture, 72 h, ±SD, N = 2, read-out: IC50 antitumor activity A549 2D. How it is done:
(§1) Compounds are diluted 1:3. 500 nL (for 2 D cell culture) or 400 nL (for 3 D cell culture) of compound were transferred from mother plate to test plate by using Mosquito (TTP labtech). DMSO percentage in test concentrations was 0.5 − 1.0%. Starting concentration of the test compounds and standard compound doxorubicin was 50 µM (2 D cell culture) or 100 µM (3 D cell culture).
(§2) Cells were grown in 96 well cell star polystyrene plates. 10,000 cells/well were seeded in wells 4 h prior the treatment with different compounds concentrations and incubated for 72 h. A cell viability assay was performed according to the manufacturer’s instruction, using CellTiter 96 aqueous solution, MTS kit (Promega, Madison, WI, USA). After 0.5–2 h of cell incubation with MTS in 2 D cell culture, the plates were read using PE EnVision absorbance at 490 nm. […] Since we prefer homogeneous assays (mix and read procedures) and therefore MTS is more practical (one step less than MTT). MTS is more sensitive and accurate in comparison with MTT assay.
(§3) Calculation of IC50 data, curves and QC analysis is made by using Excel tools and GraphPadPrism software (La Jolla, CA), v. […] QC criteria parameters (Z', S:B, R2, HillSlope) were checked for every IC50 curve.

The test system of series [2] is HCC827. The series is described as above. It is filed as cell-based. Particulars: Homo sapiens, read-out: IC50 antitumor activity HCC827 2D. As to the method:
as §1, §2, §3

Series [3] deals with NCI-H358. The description is as above. The note with it: Homo sapiens, read-out: IC50 antitumor activity NCI-H358 2D. It is filed as cell-based. As to the method:
as §1, §2, §3

For series [4], the system named is A549. In words: Cell viability assay, 3D hanging drop cell culture (CellTiter GLO 3D). It is filed as cell-based. The note with it: Homo sapiens; A549, 3D hanging drop cell culture, 72 h; ±SD, N = 2; read-out: IC50 antitumor activity A549 3D. As to the method:
as §1
(§4) Cells were grown in 96 well Perfecta 3 D hanging drop plates 5000 cell/well for 4 days until spheres were formed (and checked under the microscope). After sphere formation cells were treated with compounds followed by 72 h incubation. Cell viability assay was performed according to the manufacturer’s instruction, using CellTiter GLO 3 D for 3 D cell culture (Promega); cell incubation was 5 min on the shaker followed by 25 min incubation in the dark. Plates were read using PE EnVision luminescence.
as §3

In series [5] the test system is HCC827. The description is as above. It counts as cell-based. The note with it: Homo sapiens, read-out: IC50 antitumor activity HCC827 3D. How it is done:
as §1, §4, §3

The test system of series [6] is NCI-H358. The description is as above. It is filed as cell-based. Particulars: Homo sapiens, read-out: IC50 antitumor activity NCI-H358 3D. As to the method:
as §1, §4, §3

The test system of series [7] is A549. Briefly: BrdU proliferation assay, 2D cell culture. It counts as cell-based. The note with it: Homo sapiens, A549, 2D cell culture, ±SD, N = 2. How it is done:
Cells were grown in 96 well cell star polystyrene plates. 10,000 cells/well were seeded in wells 4 h prior the treatment with different compounds concentrations and incubated for 72 h. A cell viability assay was performed according to the manufacturer’s instruction, using CellTiter 96 aqueous solution, MTS kit (Promega, Madison, WI, USA). After 0.5–2 h of cell incubation with MTS in 2 D cell culture, the plates were read using PE EnVision absorbance at 490 nm. The results for each of tested compounds are reported as growth percentages from two independent concentrations curves compared with the untreated control cells after drug exposure. Since we prefer homogeneous assays (mix and read procedures) and therefore MTS is more practical (one step less than MTT). MTS is more sensitive and accurate in comparison with MTT assay.
(§5) Proliferation assay was performed using Cell Proliferation ELISA, BrdU (Sigma, St. Louis, MO, USA). Briefly, 48 h hours after compound addition, 10 µM of BrdU was added to each well and incubated for following 24 h. After incubation, single cell suspension was made for 3 D cell culture in the new 96 well plate. Plates were centrifuged and supernatants were removed from each plate (for 2 D and 3 D cell culture) followed by 60 min incubation at 60° C. The rest of the proliferation assay was performed according to the manufacturer instructions.
(§6) Calculation of IC50 data, curves and QC analysis is made by using Excel tools and GraphPadPrism software (La Jolla, CA), v. 5.03. In brief, individual concentration–effect curves are generated by plotting the logarithm of the tested concentration of tested compounds (X) versus corresponding percent inhibition values (Y) using least squares (ordinary) fit. […] QC criteria parameters (Z', S:B, R2, HillSlope) were checked for every IC50 curve.

For series [8], the system named is A549. In words: BrdU proliferation assay, 3D cell culture. It counts as cell-based. The note with it: Homo sapiens, A549, 3D cell culture, ±SD, N = 2. As to the method:
as §4, with “luminescence. The results for each of tested compounds are reported as growth percentages from two independent concentrations curves compared with the untreated control cells after drug exposure.” for “luminescence.”
as §5, §6

Series [9] concerns NCI-H358. Briefly: BrdU proliferation assay, 3D cell culture. It is filed as cell-based. The note with it: Homo sapiens, NCI-H358, 3D cell culture, ±SD, N = 2. As to the method: as §4, with “luminescence. The results for each of tested compounds are reported as growth percentages from two independent concentrations curves compared with the untreated control cells after drug exposure.” for “luminescence.”
as §5, §6

Series [10] relates to HCC827. In words: BrdU proliferation assay, 2D cell culture. It counts as cell-based. The note with it: Homo sapiens, HCC827, 2D cell culture, ±SD, N = 2. How it is done:
as §2, §5, §3

The subject of series [11] is NCI-H358. Briefly: BrdU proliferation assay, 2D cell culture. It counts as cell-based. Particulars: Homo sapiens, NCI-H358, 2D cell culture, ±SD, N = 2. As to the method: as §2, §5, §3
The subject of series [12] is HCC827. Briefly: BrdU proliferation assay, 3D cell culture. It counts as cell-based. The note with it: Homo sapiens, HCC827, 3D cell culture, ±SD, N = 2. How it is done: as §4, §5, §3
Where [13] appears, read: HCC827, 2D cell culture, 72 h, MTS, ±SD, N = 2.
[14] abbreviates: NCI-H358, 2D cell culture, 72 h, MTS, ±SD, N = 2.
The mark [15] stands for this setting: HCC827, 3D hanging drop cell culture, 72 h, ±SD, N = 2.
[16] abbreviates: NCI-H358, 3D hanging drop cell culture, 72 h, ±SD, N = 2.

The structures appear in SMILES notation. Counter-ions that a name gives are not always drawn. Some results are limits rather than exact numbers.

`Cl.c1ccc2c(c1)cc(-c1nc3ccc(C4=NCCCN4)cc3s1)c1ccccc12` [Compound 5i, 2-(Phenanthrene-9-yl)-6–(3,4,5,6-tetrahydropyrimidin-1-ium-2-yl)benzothiazole chloride] had a melting point of 196 to 200 °C. In addition, the concentration for half-maximal inhibition (IC50) in [1] is above 50 µM. For the same compound, the half-maximal inhibitory concentration (IC50) in [2] (HCC827, 72 h) is above 50 µM. Further, the IC50 in [3] (NCI-H358, 72 h) was above 50 µM. The IC50 in [4] is above 100 µM. Further, the concentration for half-maximal inhibition (IC50) in series [5] (HCC827, 72 h) was above 100 µM. Further, the IC50 in series [6] (NCI-H358, 72 h) was above 100 µM. In addition, in series [7], the IC50 was above 50 µM. The compound also had an IC50 in [8] above 100 µM. Also, the half-inhibitory concentration (IC50) in series [9] is above 100 µM. The compound further yielded an IC50 in [10] above 50 µM. In series [11], this compound showed a half-maximal inhibitory concentration (IC50) above 50 µM. The same compound yielded an IC50 in series [12] above 100 µM.

Regarding `Cl.c1ccc(-c2nc3ccc(C4=NCCCN4)cc3s2)cc1` [Compound 5a, 2-Phenyl-6–(3,4,5,6-tetrahydropyrimidin-1-ium-2-yl)benzothiazole chloride], the melting point was 272 to 275 °C. Also, the 50% inhibitory concentration (IC50) in [1] was above 50 µM. Also, in series [2] (setting [13]), the IC50 is above 50 µM. Moreover, in [3] (setting [14]), the IC50 was above 50 µM. Besides, the 50% inhibitory concentration (IC50) in series [4] was above 100 µM. In [5] (setting [15]), the half-inhibitory concentration (IC50) is above 100 µM. In addition, the half-maximal inhibitory concentration (IC50) in series [6] (setting [16]) is above 100 µM. Besides, the half-maximal inhibitory concentration (IC50) in series [7] is above 50 µM. In series [8], the IC50 is above 100 µM. This compound returned a half-maximal inhibitory concentration (IC50) in [9] above 100 µM. The same compound gave a half-inhibitory concentration (IC50) in [10] above 50 µM. For the same compound, in [11], the IC50 is above 50 µM. In [12], this compound yielded a half-inhibitory concentration (IC50) above 100 µM.

As to `COc1cccc2c1C(=O)c1c(O)c3c(c(O)c1C2=O)C[C@@](O)(C(=O)CO)C[C@@H]3O[C@H]1C[C@H](N)[C@H](O)[C@H](C)O1` [Doxorubicin, reference compound], the half-maximal inhibitory concentration (IC50) in series [1] turned out to be 2 ± 0.23 µM; in series [2] (setting [13]) it was 0.39 ± 0.05 µM; in series [3] (setting [14]) it was 0.11 ± 0.01 µM; in series [4] it was 5 ± 0.26 µM; in [5] (setting [15]) it was 0.78 ± 0.08 µM; in series [6] (setting [16]), 0.25 ± 0.03 µM. The IC50 in series [7] is 0.06 ± 0.01 µM; in series [8], 0.39 ± 0.02 µM; in series [9], 0.34 ± 0.36 µM; in series [10], 0.02 µM; in series [11] it was 0.04 µM; in series [12], 1.03 ± 0.71 µM.

Regarding `COc1cc2c(Nc3ccc(Br)cc3F)ncnc2cc1OCC1CCN(C)CC1` [Vandetanib, reference compound], the IC50 in series [1] is above 25 µM; in [2] (setting [13]), 0.81 ± 0.05 µM; in [3] (setting [14]), 3 ± 0.85 µM; in [4] it was above 50 µM; in series [5] (setting [15]) it was 2 ± 0.11 µM; in [6] (setting [16]) it was 0.3 ± 0.02 µM. In addition, the IC50 was above 25 µM in series [7]; 1.25 ± 2.82 µM in series [8]; 1.91 ± 0.09 µM in [9]; 2.82 ± 1.98 µM in series [10]; 1 ± 0.28 µM in series [11]; 0.87 ± 1.15 µM in series [12].

The compound `c1ccc2c(-c3nc4ccc(C5=NCCCN5)cc4[nH]3)c[nH]c2c1` (as salt: chloride) [Compound 6e, 2-(1H-Indol-3-yl)-5(6)–(3,4,5,6-tetrahydropyrimidin-1-ium-2-yl)benzimidazole chloride] returned a melting point above 300 °C.

`Cl.c1ccc2c(-c3nc4ccc(C5=NCCCN5)cc4s3)c[nH]c2c1` [Compound 5f, 2-(1H-Indol-3-yl)-6–(3,4,5,6-tetrahydropyrimidin-1-ium-2-yl)benzothiazole chloride] yielded a melting point above 300 °C. The 50% inhibitory concentration (IC50) in series [1] was above 50 µM. The half-inhibitory concentration (IC50) in [2] (setting [13]) was above 50 µM. Moreover, the IC50 in [3] (setting [14]) is above 50 µM. Besides, the 50% inhibitory concentration (IC50) in [4] was above 100 µM. The half-inhibitory concentration (IC50) in series [5] (setting [15]) is above 100 µM. The IC50 in series [6] (setting [16]) was above 100 µM. In addition, the 50% inhibitory concentration (IC50) in [7] is above 50 µM. In series [8], the IC50 is above 100 µM. In series [9], this compound returned an IC50 above 100 µM. This compound came in with an IC50 in series [10] above 50 µM. In series [11], this compound had an IC50 above 50 µM. Moreover, in series [12], the concentration for half-maximal inhibition (IC50) was above 100 µM.

On to `CN[C@@H]1C[C@H]2O[C@@](C)([C@@H]1OC)n1c3ccccc3c3c4c(c5c6ccccc6n2c5c31)C(=O)NC4` [Staurosporine, reference compound], for which the values for the concentration for half-maximal inhibition (IC50) in series [2] (setting [13]), in series [10] and in series [12] were 0.15 ± 0.01 µM, 0.06 ± 0.01 µM and 0.04 ± 0.01 µM, respectively.
